# Measurements published in patent US20210353652A1, “TUMOR MICROENVIRONMENT-ACTIVATED DRUG-BINDER CONJUGATES, AND USES RELATED THERETO” (Trustees of Tufts College, priority 2018, published 2021).
# B1: AVA04-251 BH cys-800 (designed binder)
# chain: MIPRGLSEAKPATPEIQEIVDKVKPQLEEKTNETYGKLEAVQYKTQVLAREGRQDWVLSTNYYIKVRAGDNKYMHLKVFNGPWVPFPHQQLADRVLTGYQVDKNKDDELTGFAEAAAKEAAAKEAAAKEAAAKEAAAKEAAAKMIPRGLSEAKPATPEIQEIVDKVKPQLEEKTNETYGKLEAVQYKTQVLAREGRQDWVLSTNYYIKVRAGDNKYMHLKVFNGPWVPFPHQQLADRVLTGYQVDKNKDDELTGFLQAAAHHHHHHC
# modifications: IRDye 800CW conjugated with maleimide chemistry (to the single Cys residue)
# notes: Dye conjugate of m3; also called conjugated Affimer
# B2: AVA04-251 BH cys (designed binder)
# chain: B1 chain
# notes: Produced in E. coli BL21; also called parental molecule
# Key:
# [1] = test system: humanized PD-L1 MC38 tumour cell line; assay: Humanised PD-L1 MC38 syngeneic model of colorectal cancer; format: in vivo; settings: VbP 0.02 mg/mouse per os added to AVA04-251 Fc, compared to the monotherapy
# Description: Mice (n=8/group, C57BL/6) were inoculated subcutaneously in the right flank region with a humanized PD-L1 MC38 tumour cell line (in which the mouse PD-L1 extracellular domain was replaced by the equivalent human domain; CrownBio Inc). AVA04-251 Fc and associated control (SQTgly Fc) were injected via the IP route once tumours were >80 mm^3. Treatments were administered twice a week for 3 weeks at a dose of 10 mg/kg (AVA04-251 Fc and its control, SQTgly Fc). VbP (Tufts University) was administered 5 times a week (with 2 days off) at 0.02 mg/mouse per os. Overall, tumour growth inhibition was shown for both treatments (FIG. 17).
# Seventy (70) days after the inoculation of the tumour, three (3) mice from the group treated with AVA04-251 Fc and VbP were inoculated a second time with the huMC38 cell line (a control group was inoculated at the same time) to assess if the immune system developed a memory response, preventing subsequent tumor growth.
# [2] = Acute toxicity study in Sprague Dawley rats; format: in vivo, rat; settings: SD rats, subcutaneous
# Description: The comparative in vivo safety of a representative linker-VbP pro-drug administered subcutaneously at a dose equivalent to 10-fold the maximum tolerated dose (MTD) of VbP was established in Sprague Dawley (SD) rats, i.e., 10 times the dose of VbP that […] of the SD rats.
# Prior to administration, MAL-activated 6323 (PEGs-linker-VbP pro-drug) was conjugated to L-cysteine in order to inactivate the MAL moiety. L-cysteine (5 mg; Sigma) was dissolved in 1 mL of MAL-activated 6323 (4.8 mM in 50 mM MES, 150 mM NaCl, pH 6) to achieve an approximate stoichiometry of 10:1 L-cysteine:6323. The resulting solution was incubated at room temperature for 2-3 hours, after which time the reaction was confirmed to have reached completion by LC-MS analysis. The resulting Cys-modified 6323 was purified by preparative RP-HPLC using a Supelco Discovery C18 column with a 2:98 acetonitrile:water (0.1% TFA) gradient over 10 minutes, and was subsequently lyophilized.
# Six (6) male SD rats (Charles River) were injected subcutaneously with 1.47 mg/kg Cys-modified 6323 (equivalent to 0.25 mg VbP/kg) in sterile PBS. […] In this study, the MTD for VbP was considered to be 0.025 mg VbP/kg. At 24 hours, 5 of the 6 animals administered Cys-modified 6323 at a dose equivalent to 10-times the VbP MTD survived, indicating a safety margin for the VbP pro-drug relative VbP.
# [3] = test system: J774A.1 cells; assay: Pyroptosis (LDH release) in J774 mouse macrophage cell line; format: cell-based; settings: 1 μM, 24 hours
# Description: Affimer-linker-VbP pro-drugs are designed to be cleaved by FAPα to release VbP.
# J774A.1 cells (mouse monocyte macrophages; ATCC) were grown in DMEM-10%-FBS in 75 cm^2 tissue culture flasks, harvested by scraping in PBS, resuspended in DMEM-1%-FBS, plated in 96-well plates (VWR) at a density of 5×10^3 cells per well, and placed in a 5% C02 incubator at 37° C. After incubation for 24 hours, serial 10-fold dilutions of VbP, unconjugated AVA04-182 Fc, linker-VbP pro-drugs (6325, 6326 and 6328), and Affimer-linker-VbP pro-drugs (AVA04-182 Fc-6325, −6326 and −6328) were added to wells with and without addition of rhFAPα (R&D Systems) at a final concentration of 25 nM. Each reaction mixture was tested in triplicate and incubated for a further 24 hours at 37° C. Lactate dehydrogenase (LDH; a marker of pyroptosis) released into culture supernatants, was measured using the CytoTox 96 Non-Radioactive Cytotoxicity Assay (Promega) according to the manufacturer's instructions. LDH concentrations were determined by absorbance (A490) measurements in a SpectraMax® M2^e microplate reader (Molecular Devices). Percent LDH release was calculated by subtracting the background release in wells containing DMEM-1%-FBS without cells and expressing the resulting values as percentages of the LDH released by the CytoTox 96 lysis reagent.
# [4] = test system: AML cell lines; assay: Pyroptosis in AML cell lines in vitro; format: cell-based
# [5] = test system: MV4-11 AML cells; assay: MV4-11 AML model in NOD-SCID Il2rg-/- mice; format: in vivo, mouse; settings: intraperitoneal once a day, 5 days on, 2 days off
# Excerpt: One million MV4-11 cells injected into the tail vein of 10-week-old female NOD-SCID Il2rg−/−mice.
# [6] = test system: T cell response (BMDC co-cultured with allogenic CD4+ T cells); assay: Mouse mixed lymphocyte reaction (MLR) assay; format: cell-based; settings: ELISA of supernatant after 3 days of culture, in comparison to isotype control or SQTGly Fc
# Description: A mouse mixed lymphocyte reaction (MLR) assay was performed to assess the ability of AVA04-182 Fc to modulate the T cell response. In this MLR assay, BMDC (bone marrow dendritic cells) were generated from the bone marrow of one (1) C57BL/6 mouse, cultured for seven (7) days in the presence of GM-CSF. Cells were then co-cultured with allogenic CD4+ T cells isolated from the spleen of a Balb/c mouse using negative selection. The MLR assay was performed in the presence or absence of the test products (AVA04-182 Fc, SQTgly Fc [SEQ ID NO: 120; Affimer Fc fusion without PD-L1 targeting], Avelumab and its isotype control, HuIgG1) and controls (anti-mouse PD-L1 clone 10F9.G2 and its isotype control, rat IgG2b). Test products were evaluated at three concentrations (700, 70 and 7 nM) and the controls at one concentration (70 nM). After 3 days of culture, cell culture supernatant was harvested and the secretion of interferon γ (IFNγ) and interleukin-2 (IL-2) was evaluated using ELISA. The anti-mouse PD-L1 and Avelumab induced an increase in IL-2 (data not shown) and IFNγ secretion, in comparison to their isotype controls (FIG. 4). Similarly, AVA04-182 Fc treatment led to an increase in IL-2 (data not shown) and IFNγ secretion at all concentrations tested, in comparison to SQTGly Fc (FIG. 4).
# [7] = molecular target: mouse PD-L1 Fc (R&D Systems) (mouse) (UniProt Q9EP73); assay: PD-1/PD-L1 competitive ELISA: antibody preincubated with mouse PD-L1 Fc, then loaded on plate-coated mouse PD-1 Fc; % inhibition
# [8] = molecular target: T1, human PD-L1 Fc (R&D Systems) chimeric protein (human, UniProt Q9NZQ7 19-239); assay: binding ELISA on plate-coated human PD-L1 Fc, detection with biotinylated anti-cystatin A and streptavidin-HRP; the table gives no unit, nM is the x axis of the curve
# T1 construct: Bought reagent; also called human PD-L1 Fe; not shown: Fc part of the bought R&D Systems chimera
# T1 sequence (Q9NZQ7 19-239, change not shown): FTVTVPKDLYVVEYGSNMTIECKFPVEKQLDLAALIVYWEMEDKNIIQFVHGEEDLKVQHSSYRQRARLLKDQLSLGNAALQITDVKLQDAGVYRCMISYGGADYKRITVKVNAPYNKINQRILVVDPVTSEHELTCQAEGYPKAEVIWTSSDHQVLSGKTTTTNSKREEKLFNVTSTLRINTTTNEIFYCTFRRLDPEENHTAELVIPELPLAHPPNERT
# Sequence of mouse PD-L1 Fc (R&D Systems) (mouse) (Q9EP73 19-238): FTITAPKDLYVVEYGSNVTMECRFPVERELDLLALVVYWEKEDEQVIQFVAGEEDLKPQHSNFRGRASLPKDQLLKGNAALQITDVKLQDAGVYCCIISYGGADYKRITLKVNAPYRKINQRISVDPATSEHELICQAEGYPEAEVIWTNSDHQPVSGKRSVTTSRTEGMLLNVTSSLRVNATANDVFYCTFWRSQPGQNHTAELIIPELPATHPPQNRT
molecule,measurement,setting,value
"CC(C)[C@H](N)C(=O)N1CCC[C@H]1B(O)O [VbP, Val-boroPro]",Escape of tumour growth at Day 13,[1],none of the mice showed escape of tumour growth
same,MTD,[2],0.025 mg VbP/kg
same,LDH release in the presence of rhFAPα,[3]; 25 nM rhFAPα,significant LDH release
same,LDH release in the absence of rhFAPα,[3]; no rhFAPα,significant LDH release
same,Induction of pyroptosis,[4],induces pyroptosis
same,Efficacy against MV4-11 AML cells in vivo,[5],demonstrates efficacy
Avelumab: anti-PD-L1 antibody,IFNγ secretion,[6],increase
same,IL-2 secretion,[6]; data not shown,increase
Anti muPD-L1 (10F9.G2) (antibody),IC50,[7],0.692 nM
B1,EC50,[8],0.0904 nM
B2,EC50,[8],0.0355 nM
